According to US12447153B2, “HER2 mutation inhibitors” (Array BioPharma Inc., priority 2021, dated 2025):

Assays:
[1] = biological target: ErbB2 with Exon 20 YVMA insertion (HER2-YVMA) (Homo sapiens (Human), UniProt P04626, INS775YVMA); assay: Cellular Phosphorylation Assay, Assay 4 (constitutive ErbB2 phosphorylation, NIH 3T3 cells); type: cell-based
EGFR = EGFR (Homo sapiens (Human), UniProt P00533); assay: ErbB Enzyme Assay (HTRF KinEASE-TK), Assay 3; type: biochemical
EGFR wild type (EGFR WT) = EGFR wild type (EGFR WT) (Homo sapiens (Human), UniProt P00533); assay: Cellular Phosphorylation Assay, Assay 5 (EGF-stimulated EGFR phosphorylation, NIH 3T3 cells); type: cell-based
BCRP = BCRP (Homo sapiens (Human), UniProt Q9UNQ0); assay: BCRP MDCKII efflux assay (Assay 7); type: in vitro ADME; conditions: dog; efflux ratio Papp(B-A)/Papp(A-B), BCRP MDCKII cells; read-out: Assay 7 Pe Ratio
Procedure: Assay conditions included with and without the BCRP-specific inhibitor, KO143, at a concentration of 0.3 μM to ascertain the contribution of BCRP to the efflux value of the test compound.
Final organic concentration in the assay was 1%.

ErbB2 WT = ErbB2 WT (Homo sapiens (Human), UniProt P04626); assay: ErbB Enzyme Assay (HTRF KinEASE-TK), Assay 2; type: biochemical
[2] = cellular ErbB2 YVMA phosphorylation
[3] = cellular EGFR WT phosphorylation, EGF-stimulated
[4] = EGF-stimulated EGFR WT phosphorylation

Sequence of ErbB2 with Exon 20 YVMA insertion (HER2-YVMA) (P04626 other isoform, or with tags, fused parts or gaps ins YVMA behind 775): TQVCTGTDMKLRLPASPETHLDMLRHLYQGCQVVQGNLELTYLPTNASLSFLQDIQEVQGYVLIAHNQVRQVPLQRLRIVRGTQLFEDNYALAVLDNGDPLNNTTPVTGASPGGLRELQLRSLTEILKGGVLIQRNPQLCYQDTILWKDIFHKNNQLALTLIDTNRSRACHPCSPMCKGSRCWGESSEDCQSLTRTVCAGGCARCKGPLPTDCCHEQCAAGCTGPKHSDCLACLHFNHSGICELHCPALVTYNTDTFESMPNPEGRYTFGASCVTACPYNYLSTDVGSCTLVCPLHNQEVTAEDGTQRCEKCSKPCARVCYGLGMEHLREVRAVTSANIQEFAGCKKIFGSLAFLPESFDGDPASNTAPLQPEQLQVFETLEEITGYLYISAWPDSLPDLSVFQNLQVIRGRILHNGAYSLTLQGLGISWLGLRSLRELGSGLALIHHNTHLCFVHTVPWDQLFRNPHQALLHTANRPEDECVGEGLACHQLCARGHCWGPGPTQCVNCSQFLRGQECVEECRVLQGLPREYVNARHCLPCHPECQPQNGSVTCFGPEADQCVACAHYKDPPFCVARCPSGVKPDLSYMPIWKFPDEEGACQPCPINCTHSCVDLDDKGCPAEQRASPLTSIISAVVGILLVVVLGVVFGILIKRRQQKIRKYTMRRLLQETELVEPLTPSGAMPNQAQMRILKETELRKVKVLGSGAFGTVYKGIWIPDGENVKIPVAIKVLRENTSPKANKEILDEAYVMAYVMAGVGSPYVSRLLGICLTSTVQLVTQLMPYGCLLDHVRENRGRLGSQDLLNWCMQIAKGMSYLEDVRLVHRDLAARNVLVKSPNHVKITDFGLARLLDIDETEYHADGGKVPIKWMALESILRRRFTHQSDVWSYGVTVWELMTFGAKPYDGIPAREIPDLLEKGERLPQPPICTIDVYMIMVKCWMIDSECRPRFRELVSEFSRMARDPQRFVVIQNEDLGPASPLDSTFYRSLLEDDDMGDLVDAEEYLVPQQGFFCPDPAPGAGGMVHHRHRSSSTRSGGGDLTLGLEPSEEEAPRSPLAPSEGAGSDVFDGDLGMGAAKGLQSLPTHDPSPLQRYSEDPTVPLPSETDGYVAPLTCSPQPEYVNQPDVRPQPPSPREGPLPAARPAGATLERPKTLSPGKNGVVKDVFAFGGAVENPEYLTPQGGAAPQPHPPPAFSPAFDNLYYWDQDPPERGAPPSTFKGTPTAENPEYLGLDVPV
Sequence of ErbB2 WT (P04626 23-1255): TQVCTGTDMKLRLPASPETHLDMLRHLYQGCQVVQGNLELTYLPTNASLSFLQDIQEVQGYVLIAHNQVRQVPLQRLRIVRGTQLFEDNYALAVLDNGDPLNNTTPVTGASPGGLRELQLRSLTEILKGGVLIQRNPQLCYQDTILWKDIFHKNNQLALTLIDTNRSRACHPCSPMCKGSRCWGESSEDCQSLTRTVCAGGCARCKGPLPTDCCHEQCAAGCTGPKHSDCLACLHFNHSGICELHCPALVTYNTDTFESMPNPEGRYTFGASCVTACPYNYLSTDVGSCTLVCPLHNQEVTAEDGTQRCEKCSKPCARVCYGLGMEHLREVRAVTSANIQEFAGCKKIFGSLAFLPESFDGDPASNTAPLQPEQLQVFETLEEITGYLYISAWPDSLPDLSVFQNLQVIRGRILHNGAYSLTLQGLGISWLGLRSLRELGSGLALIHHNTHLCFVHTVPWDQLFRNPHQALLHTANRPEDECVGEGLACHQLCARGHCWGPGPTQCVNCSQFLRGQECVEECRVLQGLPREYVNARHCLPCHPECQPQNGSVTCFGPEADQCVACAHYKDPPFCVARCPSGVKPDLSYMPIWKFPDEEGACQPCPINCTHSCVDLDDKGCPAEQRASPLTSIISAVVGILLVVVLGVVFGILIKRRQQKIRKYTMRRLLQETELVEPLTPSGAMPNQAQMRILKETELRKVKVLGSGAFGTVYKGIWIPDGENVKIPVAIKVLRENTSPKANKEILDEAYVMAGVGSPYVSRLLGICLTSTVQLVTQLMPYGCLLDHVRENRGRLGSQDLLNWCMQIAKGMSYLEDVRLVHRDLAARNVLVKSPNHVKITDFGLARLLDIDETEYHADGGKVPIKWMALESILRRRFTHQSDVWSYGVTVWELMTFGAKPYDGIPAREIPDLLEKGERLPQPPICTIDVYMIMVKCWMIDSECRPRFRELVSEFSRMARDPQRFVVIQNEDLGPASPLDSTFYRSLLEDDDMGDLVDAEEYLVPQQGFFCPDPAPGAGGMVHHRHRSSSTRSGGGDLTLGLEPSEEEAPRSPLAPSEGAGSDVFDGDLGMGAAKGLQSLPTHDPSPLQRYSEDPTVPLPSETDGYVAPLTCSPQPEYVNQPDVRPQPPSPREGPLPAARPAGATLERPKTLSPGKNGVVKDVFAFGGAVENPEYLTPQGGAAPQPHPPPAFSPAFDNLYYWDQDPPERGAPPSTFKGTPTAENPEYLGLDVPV
Sequence of EGFR wild type (EGFR WT) (P00533 25-1210): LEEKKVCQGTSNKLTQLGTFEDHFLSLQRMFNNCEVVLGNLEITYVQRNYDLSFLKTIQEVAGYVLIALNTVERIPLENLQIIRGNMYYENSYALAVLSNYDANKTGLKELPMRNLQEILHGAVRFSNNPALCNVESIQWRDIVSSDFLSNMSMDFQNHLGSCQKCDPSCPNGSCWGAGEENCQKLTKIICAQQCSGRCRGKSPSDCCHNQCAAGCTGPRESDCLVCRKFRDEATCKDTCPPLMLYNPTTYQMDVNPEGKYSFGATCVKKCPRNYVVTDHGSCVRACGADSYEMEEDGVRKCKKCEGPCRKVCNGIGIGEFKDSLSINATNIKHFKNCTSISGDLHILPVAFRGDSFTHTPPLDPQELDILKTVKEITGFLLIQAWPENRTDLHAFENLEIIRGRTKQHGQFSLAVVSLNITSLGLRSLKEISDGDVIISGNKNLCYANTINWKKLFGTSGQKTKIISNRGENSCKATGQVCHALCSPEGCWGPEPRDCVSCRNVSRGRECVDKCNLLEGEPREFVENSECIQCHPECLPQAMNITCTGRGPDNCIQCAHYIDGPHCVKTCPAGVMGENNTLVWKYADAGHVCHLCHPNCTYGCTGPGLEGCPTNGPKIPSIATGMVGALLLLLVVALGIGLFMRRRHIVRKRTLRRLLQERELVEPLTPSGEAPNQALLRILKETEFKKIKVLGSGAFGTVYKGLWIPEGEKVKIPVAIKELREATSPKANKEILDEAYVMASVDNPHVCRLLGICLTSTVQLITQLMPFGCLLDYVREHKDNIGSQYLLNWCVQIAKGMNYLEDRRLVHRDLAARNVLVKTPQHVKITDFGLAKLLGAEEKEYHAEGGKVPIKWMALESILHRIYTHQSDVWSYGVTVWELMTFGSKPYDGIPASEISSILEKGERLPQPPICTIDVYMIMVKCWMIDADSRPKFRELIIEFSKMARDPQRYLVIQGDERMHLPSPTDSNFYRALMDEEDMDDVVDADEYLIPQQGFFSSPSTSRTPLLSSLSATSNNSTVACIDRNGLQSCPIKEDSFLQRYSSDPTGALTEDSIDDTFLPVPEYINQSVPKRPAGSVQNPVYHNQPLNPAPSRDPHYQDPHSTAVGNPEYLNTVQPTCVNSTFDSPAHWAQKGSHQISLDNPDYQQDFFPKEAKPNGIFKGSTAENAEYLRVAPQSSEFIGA
Sequence of EGFR (P00533 25-1210): as above

IC50 [1, 2] [nM] | IC50 (EGFR; EGFR enzyme assay) [nM] | IC50 (EGFR wild type (EGFR WT); [3]) [nM] | efflux ratio at 2 h, 1 µM (BCRP) | IC50 (ErbB2 WT; ErbB2 WT enzyme assay) [nM] | IC50 ([1]; ErbB2 YVMA phosphorylation) [nM] | IC50 (EGFR; EGFR enzyme) [nM] | IC50 (EGFR wild type (EGFR WT); [4]) [nM] | IC50 (ErbB2 WT; ErbB2 WT enzyme) [nM] | SMILES
33.8 | ≥ 10000 | ≥ 5000 | 2.5 | 289 | – | – | – | – | C=CC(=O)N1C[C@H]2CC[C@@H]1C[C@@H]2c1ccc2ncnc(Nc3cc(C)c(Oc4cnc5c(c4)ncn5C)cc3F)c2n1 [Example 420]
– | – | – | 6.8 | – | 30.6 | ≥ 10000 | ≥ 5000 | 170 | C=CC(=O)N1C[C@H]2C[C@@H]1CN2c1ccc2ncnc(Nc3ccc(Oc4ccn5ncnc5c4)c(C)c3F)c2n1 [Example 94, 1-((1R,4R)-5-(4-((4-([1,2,4]triazolo[1,5-a]pyridin-7-yloxy)-2-fluoro-3-methylphenyl)amino)pyrido[3,2-d]pyrimidin-6-yl)-2,5-diazabicyclo[2.2.1]heptan-2-yl)prop-2-en-1-one]
31.6 | 3450 | ≥ 5000 | 37 | 51.9 | – | – | – | – | C=CC(=O)N1CCC(c2ccc3ncnc(Nc4ccc(Oc5cnc6c(c5)ncn6C)c(Cl)c4)c3n2)CC1 [Example 271]
– | – | – | 6.8 | – | 21.3 | 2270 | 1740 | 209 | C=CC(=O)N1CCC(Oc2nc3c(Nc4ccc(Oc5ccc6cn(C)nc6c5)c(C)c4)ncnc3cc2OC)CC1 [Example 157, 1-(4-((7-methoxy-4-((3-methyl-4-((2-methyl-2H-indazol-6-yl)oxy)phenyl)amino)pyrido[3,2-d]pyrimidin-6-yl)oxy)piperidin-1-yl)prop-2-en-1-one]
31 | – | 2130 | 6.8 | 155 | – | – | – | – | CC#CC(=O)N1C[C@@H]2CC[C@H]1CN2c1ccc2ncnc(Nc3ccc(Oc4ccn5ncnc5c4)c(C)c3F)c2n1 [Example 333]
– | – | – | – | – | 8.7 | 70.5 | 148 | 10 | C=CC(=O)N1C[C@H]2C[C@@H]1[C@H](c1ccc3ncnc(Nc4ccc(Oc5ccn6ncnc6c5)c(Cl)c4F)c3n1)C2 [Example 231, 1-((1R,4R,6R)-6-(4-((4-([1,2,4]triazolo[1,5-a]pyridin-7-yloxy)-3-chloro-2-fluorophenyl)amino)pyrido[3,2-d]pyrimidin-6-yl)-2-azabicyclo[2.2.1]heptan-2-yl)prop-2-en-1-one]
– | – | – | – | – | 47.3 | 1350 | 799 | 76.5 | C=CC(=O)N1CCC(Oc2ccc3ncnc(Nc4ccc(Oc5cnn6ccnc6c5)c(C)c4)c3n2)CC1 [Example 8, 1-(4-((4-((4-(imidazo[1,2-b]pyridazin-7-yloxy)-3-methylphenyl)amino)pyrido[3,2-d]pyrimidin-6-yl)oxy)piperidin-1-yl)prop-2-en-1-one]
9 | 4120 | 3200 | – | 27.9 | – | – | – | – | C=CC(=O)N1CCN(c2ccc3ncnc(Nc4ccc(Oc5cnc6c(c5)ncn6C)c(C)c4)c3n2)CC1(C)C [Example 250]
– | – | – | – | – | 213 | 9450 | ≥ 5000 | 68.1 | C=CC(=O)N1C[C@H]2C[C@H](c3ccc4ncnc(Nc5cc(C)c(Oc6ccn7ncnc7c6)cc5F)c4n3)C[C@H]2C1 [Example 201, 1-((3aR,5s,6aS)-5-(4-((4-([1,2,4]triazolo[1,5-a]pyridin-7-yloxy)-2-fluoro-5-methylphenyl)amino)pyrido[3,2-d]pyrimidin-6-yl)hexahydrocyclopenta[c]pyrrol-2(1H)-yl)prop-2-en-1-one]
– | – | – | – | – | 15.4 | 2430 | 1880 | 126 | C=CC(=O)N1C[C@H]2C[C@@H]1CN2c1ccc2ncnc(Nc3ccc(Oc4ccn5ncnc5c4)c(Cl)c3F)c2n1 [Example 92, 1-((1R,4R)-5-(4-((4-([1,2,4]triazolo[1,5-a]pyridin-7-yloxy)-3-chloro-2-fluorophenyl)amino)pyrido[3,2-d]pyrimidin-6-yl)-2,5-diazabicyclo[2.2.1]heptan-2-yl)prop-2-en-1-one]
78.5 | ≥ 10000 | 3430 | – | 20.4 | – | – | – | – | C=CC(=O)N1CCCN(c2ccc3ncnc(Nc4ccc(Oc5ccn6ncnc6c5)c(C)c4F)c3n2)CC1(C)C [Example 259]
– | – | – | – | – | 35.2 | 5840 | ≥ 5000 | 19 | C=CC(=O)N1CCCN(c2ccc3ncnc(Nc4ccc(Oc5ccn6ncnc6c5)c(Cl)c4)c3n2)CC1 [Example 99, 1-(4-(4-((4-([1,2,4]triazolo[1,5-a]pyridin-7-yloxy)-3-chlorophenyl)amino)pyrido[3,2-d]pyrimidin-6-yl)-1,4-diazepan-1-yl)prop-2-en-1-one]
3.2 | 22.3 | 35.8 | – | 1.8 | – | – | – | – | C=CC(=O)N1CCN(c2ccc3ncnc(Nc4ccc(Oc5ccn6ncnc6c5)c(Cl)c4F)c3n2)CC12CC2 [Example 363]
– | – | – | – | – | 79.5 | ≥ 10000 | ≥ 5000 | 49.9 | C=CC(=O)N1CC[C@@H]2[C@H](c3ccc4ncnc(Nc5ccc(Oc6ccc7c(c6)ncn7C)c(C)c5F)c4n3)CC[C@@H]21 (racemic) [Example 142, rac-1-((3aR,4R,6aS)-4-(4-((2-fluoro-3-methyl-4-((1-methyl-1H-benzo[d]imidazol-5-yl)oxy)phenyl)amino)pyrido[3,2-d]pyrimidin-6-yl)hexahydrocyclopenta[b]pyrrol-1(2H)-yl)prop-2-en-1-one]
51.1 | 2250 | 2550 | – | 94.8 | – | – | – | – | CCC(=O)N1CC([C@H](C)c2ccc3ncnc(Nc4ccc(Oc5ccn6ncnc6c5)c(C)c4F)c3n2)C1 (racemic) [Example 301]
– | – | – | – | – | 44.9 | ≥ 10000 | ≥ 5000 | 261 | C=CC(=O)N1C[C@@H](c2ccc3ncnc(Nc4cc(C)c(Oc5ccc6c(c5)ncn6C)cc4F)c3n2)CC[C@H]1C [Example 170, 1-((2R,5S)-5-(4-((2-fluoro-5-methyl-4-((1-methyl-1H-benzo[d]imidazol-5-yl)oxy)phenyl)amino)pyrido[3,2-d]pyrimidin-6-yl)-2-methylpiperidin-1-yl)prop-2-en-1-one]
8.2 | 772 | 380 | – | 38 | – | – | – | – | C=CC(=O)N1CCN(c2ccc3ncnc(Nc4cc(C)c(Oc5ccn6ncnc6c5)cc4F)c3n2)C[C@H]1COC [Example 347]
– | – | – | – | – | 82.8 | ≥ 10000 | ≥ 5000 | 55.4 | C=CC(=O)N1[C@H](C)CN(c2ccc3ncnc(Nc4ccc(Oc5ccc6c(c5)ncn6C)c(C)c4F)c3n2)C[C@@H]1C [Example 115, 1-((2S,6R)-4-(4-((2-fluoro-3-methyl-4-((1-methyl-1H-benzo[d]imidazol-5-yl)oxy)phenyl)amino)pyrido[3,2-d]pyrimidin-6-yl)-2,6-dimethylpiperazin-1-yl)prop-2-en-1-one]
60.8 | 2200 | 4280 | – | 52.1 | – | – | – | – | C=CC(=O)N1C[C@H](c2ccc3ncnc(Nc4ccc(Oc5ccn6ncnc6c5)c(C)c4F)c3n2)C[C@H]1C (mixture of isomers) [Example 387]
82.7 | 3670 | ≥ 5000 | – | 120 | – | – | – | – | C=CC(=O)N1C[C@H]2CC[C@H](c3ccc4ncnc(Nc5cc(C)c(Oc6ccn7ncnc7c6)cc5F)c4n3)[C@H]2C1 [Example 410]

SMILES | IC50 [1, 2] [nM] | IC50 (EGFR; EGFR enzyme assay) [nM] | IC50 (EGFR wild type (EGFR WT); [3]) [nM] | efflux ratio at 2 h, 1 µM (BCRP) | IC50 (ErbB2 WT; ErbB2 WT enzyme assay) [nM] | IC50 ([1]; ErbB2 YVMA phosphorylation) [nM] | IC50 (EGFR; EGFR enzyme) [nM] | IC50 (EGFR wild type (EGFR WT); [4]) [nM] | IC50 (ErbB2 WT; ErbB2 WT enzyme) [nM]
C=CC(=O)N1[C@@H]2CC[C@H]1C[C@@H](c1ccc3ncnc(Nc4ccc(Oc5cnc6c(c5)ncn6C)c(C)c4)c3n1)C2 [Example 219, 1-((1R,3r,5S)-3-(4-((3-methyl-4-((3-methyl-3H-imidazo[4,5-b]pyridin-6-yl)oxy)phenyl)amino)pyrido[3,2-d]pyrimidin-6-yl)-8-azabicyclo[3.2.1]octan-8-yl)prop-2-en-1-one] | – | – | – | 9.3 | – | 20.1 | 3660 | ≥ 5000 | 111
C=CC(=O)N1[C@H]2CC[C@@H]1[C@H](c1ccc3ncnc(Nc4ccc(Oc5ccn6ncnc6c5)c(C)c4F)c3n1)CC2 [Example 429] | 13.8 | 520 | 447 | – | 28.4 | – | – | – | –
C=CC(=O)N1[C@@H]2CC[C@H]1CC(c1ccc3ncnc(Nc4cc(C)c(Oc5ccc6c(c5)ncn6C)cc4F)c3n1)C2 (mixture of isomers) [Example 130, rac-1-((1R,5S)-3-(4-((2-fluoro-5-methyl-4-((1-methyl-1H-benzo[d]imidazol-5-yl)oxy)phenyl)amino)pyrido[3,2-d]pyrimidin-6-yl)-8-azabicyclo[3.2.1]octan-8-yl)prop-2-en-1-one] | – | – | – | – | – | 19.9 | 7340 | ≥ 5000 | 135
C=CC(=O)N1[C@@H]2CC[C@H]1[C@H](c1ccc3ncnc(Nc4cc(C)c(Oc5cnc6c(c5)ncn6C)cc4F)c3n1)C2 [Example 417] | 51.6 | ≥ 10000 | ≥ 5000 | – | 215 | – | – | – | –
C=C(F)C(=O)N1[C@@H]2CC[C@H]1C[C@@H](c1ccc3ncnc(Nc4cc(C)c(Oc5ccn6ncnc6c5)cc4F)c3n1)C2 [Example 207, 1-((1R,3r,5S)-3-(4-((4-([1,2,4]triazolo[1,5-a]pyridin-7-yloxy)-2-fluoro-5-methylphenyl)amino)pyrido[3,2-d]pyrimidin-6-yl)-8-azabicyclo[3.2.1]octan-8-yl)-2-fluoroprop-2-en-1-one] | – | – | – | – | – | 685 | ≥ 10000 | ≥ 5000 | 150
